Experimental data reported in ChEMBL document CHEMBL4622868, “Design and synthesis of amphiphilic 2-hydroxybenzylphosphonium salts with antimicrobial and antitumor dual action” (Bioorg Med Chem Lett, 2020).
Activity calls are given as the source filed them. The calls are words filed in the database; no cut-off is given here.

Legend:
Staphylococcus aureus [1] = test: Antibacterial activity against Staphylococcus aureus ATCC 209p; format: functional
Staphylococcus aureus [2] = test: Bactericidal activity against Staphylococcus aureus ATCC 209p; format: functional
Bacillus cereus [3] = test: Antibacterial activity against Bacillus cereus; format: functional
Bacillus cereus [4] = test: Bactericidal activity against Bacillus cereus; format: functional
[5] = system: Trichophyton mentagrophytes; test: Antifungal activity against Trichophyton mentagrophytes; format: functional
[6] = system: Trichophyton mentagrophytes; test: Fungicidal activity against Trichophyton mentagrophytes; format: functional
Candida albicans [7] = test: Antifungal activity against Candida albicans; format: functional
Candida albicans [8] = test: Fungicidal activity against Candida albicans; format: functional
Staphylococcus aureus [9] = test: Antibacterial activity against clinical isolate amoxicillin and ciprofloxacin resistance Staphylococcus aureus; format: functional
Staphylococcus aureus [10] = test: Bactericidal activity against clinical isolate amoxicillin and ciprofloxacin resistance Staphylococcus aureus; format: functional
Staphylococcus aureus [11] = test: Antibacterial activity against clinical isolate amoxicillin resistance Staphylococcus aureus; format: functional
Staphylococcus aureus [12] = test: Bactericidal activity against clinical isolate amoxicillin resistance Staphylococcus aureus; format: functional
Staphylococcus aureus [13] = test: Antibacterial activity against Staphylococcus aureus ATCC 209p assessed as increase in crystal violet uptake at 2 uM incubated for 30 mins (reference value: 1.8 %); format: functional
[14] = Hemolytic activity against RBC (unknown origin) at 480 uM; format: ADME, cell-based, Erythrocyte; conditions: red blood cells (erythrocytes); read-out: Activity
[15] = Hemolytic activity against RBC (unknown origin) at 240 uM; format: ADME, cell-based, Erythrocyte; conditions: red blood cells (erythrocytes); read-out: Activity
[16] = Hemolytic activity against RBC (unknown origin) at 120 uM; format: ADME, cell-based, Erythrocyte; conditions: red blood cells (erythrocytes); read-out: Activity
[17] = Hemolytic activity against RBC (unknown origin) at 60 uM; format: ADME, cell-based, Erythrocyte; conditions: red blood cells (erythrocytes); read-out: Activity
[18] = Hemolytic activity against RBC (unknown origin) at 40 uM; format: ADME, cell-based, Erythrocyte; conditions: red blood cells (erythrocytes); read-out: Activity
[19] = Hemolytic activity against RBC (unknown origin) at 20 uM; format: ADME, cell-based, Erythrocyte; conditions: red blood cells (erythrocytes); read-out: Activity
[20] = Hemolytic activity against RBC (unknown origin) at 10 uM; format: ADME, cell-based, Erythrocyte; conditions: red blood cells (erythrocytes); read-out: Activity
[21] = Hemolytic activity against RBC (unknown origin) at 5 uM; format: ADME, cell-based, Erythrocyte; conditions: red blood cells (erythrocytes); read-out: Activity
[22] = Hemolytic activity against RBC (unknown origin) at 1 uM; format: ADME, cell-based, Erythrocyte; conditions: red blood cells (erythrocytes); read-out: Activity
M-HeLa [23] = test: Cytotoxicity against human M-HeLa cells; format: functional, cell-based
MCF7 = test: Cytotoxicity against human MCF7 cells; format: functional, cell-based
HepG2 = test: Cytotoxicity against human HepG2 cells; format: functional, cell-based; conditions: read-out: IC50
PANC-1 = test: Cytotoxicity against human PANC1 cells; format: functional, cell-based
[24] = Cytotoxicity against human Chang cells; format: cell-based
[25] = Selectivity index, ratio of IC50 for human Chang cells to IC50 for human M-HeLa cells
[26] = Selectivity index, ratio of IC50 for human Chang cells to IC50 for human MCF7 cells
[27] = Selectivity index, ratio of IC50 for human Chang cells to IC50 for human HepG2 cells
[28] = Selectivity index, ratio of IC50 for human Chang cells to IC50 for human PANC1 cells
M-HeLa [29] = test: Induction of apoptosis in human M-HeLa cells assessed as viable cells at 3 uM incubated for 24 hrs by Annexin-V FITC and propidium iodide staining based flow cytometry analysis (reference value: 90.48 %); format: functional; conditions: read-out: Activity
M-HeLa [30] = test: Induction of apoptosis in human M-HeLa cells assessed as early apoptotic cells at 3 uM incubated for 24 hrs by Annexin-V FITC and propidium iodide staining based flow cytometry analysis (reference value: 7.85 %); format: functional
M-HeLa [31] = test: Induction of apoptosis in human M-HeLa cells assessed as late apoptotic cells at 3 uM incubated for 24 hrs by Annexin-V FITC and propidium iodide staining based flow cytometry analysis (reference value: 0.36 %); format: functional
M-HeLa [32] = test: Induction of apoptosis in human M-HeLa cells assessed as necrotic cells at 3 uM incubated for 24 hrs by Annexin-V FITC and propidium iodide staining based flow cytometry analysis (reference value: 1.32 %); format: functional
M-HeLa [33] = test: Induction of apoptosis in human M-HeLa cells assessed as viable cells at 6 uM incubated for 24 hrs by Annexin-V FITC and propidium iodide staining based flow cytometry analysis (reference value: 90.48 %); format: functional; conditions: read-out: Activity
M-HeLa [34] = test: Induction of apoptosis in human M-HeLa cells assessed as early apoptotic cells at 6 uM incubated for 24 hrs by Annexin-V FITC and propidium iodide staining based flow cytometry analysis (reference value: 7.85 %); format: functional
M-HeLa [35] = test: Induction of apoptosis in human M-HeLa cells assessed as late apoptotic cells at 6 uM incubated for 24 hrs by Annexin-V FITC and propidium iodide staining based flow cytometry analysis (reference value: 0.36 %); format: functional
M-HeLa [36] = test: Induction of apoptosis in human M-HeLa cells assessed as necrotic cells at 6 uM incubated for 24 hrs by Annexin-V FITC and propidium iodide staining based flow cytometry analysis (reference value: 1.32 %); format: functional
M-HeLa [37] = test: Induction of apoptosis in human M-HeLa cells assessed as early apoptotic cells incubated for 24 hrs by Annexin-V FITC and propidium iodide staining based flow cytometry analysis; format: functional, cell-based
M-HeLa [38] = test: Induction of mitochondrial membrane potential loss in human M-HeLa cells assessed as decrease in red fluorescence intensity at 3 uM by JC10 staining based flow cytometry analysis (reference value: 99.70 %); format: functional; set-up: scale not given: the % may be the effect or the level left
M-HeLa [39] = test: Induction of mitochondrial membrane potential loss in human M-HeLa cells assessed as decrease in red fluorescence intensity at 6 uM by JC10 staining based flow cytometry analysis (reference value: 99.70 %); format: functional; set-up: scale not given: the % may be the effect or the level left
M-HeLa [40] = test: Induction of mitochondrial membrane potential loss in human M-HeLa cells assessed as decrease in red fluorescence intensity by JC10 staining based flow cytometry analysis; format: functional, cell-based
[41] = Biosurfactant activity assessed as critical micelle concentration of compound by tensiometry analysis; format: functional
[42] = Biosurfactant activity assessed as Critical micelle concentration of compound by conductometry analysis; format: physicochemical

## CCCCCCCCCCCC[P+](Cc1ccccc1O)(c1ccccc1)c1ccccc1.[Cl-]
Staphylococcus aureus [1]
  MIC: 1 µM
Staphylococcus aureus [2]
  MBC: 2 µM
Bacillus cereus [3]
  MIC: 0.9 µM
Bacillus cereus [4]
  MBC: 3.8 µM
[5]
  MIC: 7.8 µM
[6]
  MFC: 7.8 µM
Candida albicans [7]
  MIC: 7.8 µM
Candida albicans [8]
  MFC: 7.8 µM
Staphylococcus aureus [9]
  MIC: 2 µM
Staphylococcus aureus [10]
  MBC: 8 µM
Staphylococcus aureus [11]
  MIC: 4 µM
Staphylococcus aureus [12]
  MBC: 16 µM
Staphylococcus aureus [13]
  Activity: 24 - 82.7%
[14]
  hemolysis at 480 µM: 65.4%
[15]
  hemolysis at 240 µM: 42.3%
[16]
  hemolysis at 120 µM: 21.2%
[17]
  hemolysis at 60 µM: 12.2%
[18]
  hemolysis at 40 µM: 2.9%
[19]
  hemolysis at 20 µM: 1.8%
[20]
  hemolysis at 10 µM: 1.3%
[21]
  hemolysis at 5 µM: 0.9%
[22]
  hemolysis at 1 µM: 0%
M-HeLa [23]
  IC50: 2.6 µM
MCF7
  IC50: 7.2 µM
HepG2
  IC50: 9.8 µM
PANC-1
  IC50: 25.3 µM
[24]
  IC50: 42.8 µM
[25]
  Ratio IC50: 16.4
[26]
  Ratio IC50: 5.9
[27]
  Ratio IC50: 4.5
[28]
  Ratio IC50: 1.7
M-HeLa [29]
  viability at 3 µM: 46.4%
M-HeLa [30]
  Activity: 39.26%
M-HeLa [31]
  Activity: 9.78%
M-HeLa [32]
  Activity: 4.57%
M-HeLa [33]
  viability at 6 µM: 33.4%
M-HeLa [34]
  Activity: 53.31%
M-HeLa [35]
  Activity: 10.89%
M-HeLa [36]
  Activity: 2.42%
M-HeLa [37]
  Activity: Dose-dependent effect
M-HeLa [38]
  Activity: 76.61%
M-HeLa [39]
  Activity: 39.17%
M-HeLa [40]
  Activity: Dose-dependent effect

## CCCCCCCCCCCCCCCCCC[P+](Cc1ccccc1O)(c1ccccc1)c1ccccc1.[Cl-]
Staphylococcus aureus [1]
  MIC: 108 µM
Staphylococcus aureus [2]
  MBC: 215 µM
Bacillus cereus [3]
  MIC: 108 µM
Bacillus cereus [4]
  MBC: 215 µM
[5]
  MIC: inactive
[6]
  MFC: inactive
Candida albicans [7]
  MIC: inactive
Candida albicans [8]
  MFC: inactive
Staphylococcus aureus [9]
  MIC: inactive
Staphylococcus aureus [10]
  MBC: inactive
Staphylococcus aureus [11]
  MIC: inactive
Staphylococcus aureus [12]
  MBC: inactive
[41]
  CMC: 0.04 mM
[42]
  CMC: 0.04 mM
[14]
  hemolysis at 480 µM: 100%
[15]
  hemolysis at 240 µM: 100%
[16]
  hemolysis at 120 µM: 15.6%
[17]
  hemolysis at 60 µM: 2.5%
[18]
  hemolysis at 40 µM: 1.4%
[19]
  hemolysis at 20 µM: 1.2%
[20]
  hemolysis at 10 µM: 0%
[21]
  hemolysis at 5 µM: 0%
[22]
  hemolysis at 1 µM: 0%
M-HeLa [23]
  IC50: 68 µM
MCF7
  IC50: 49 µM
HepG2
  IC50: 73 µM
PANC-1
  IC50: 65 µM
[24]
  IC50: 69 µM
[25]
  Ratio IC50: 1
[26]
  Ratio IC50: 1.4
[27]
  Ratio IC50: 0.94
[28]
  Ratio IC50: 1.1
